± gives the uncertainty stated by the source.
Experiments:
Conditions in all cases: 18 h
HEK293T-Rex ERSE-FLuc [1] = assay: EC50 for ERSE-FLuc reporter activation
Method: (§1)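 Dose-response of hit compounds in HEK293T-Rex cells stably expressing ERSE-FLuc or XBP1-RLuc reporters, 18 hr treatment, 1536-well; luminescence normalised to 500 nM thapsigargin (100%) and DMSO (0%), fitted to give EC50 (M) and maximal activation; '>' marks EC50 above the top tested dose (~17 µM).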

HEK293T-Rex XBP1-RLuc [2] = assay: EC50 for XBP1-RLuc reporter activation
Method: as §1

HEK293T-Rex ERSE-FLuc [3] = assay: maximal ERSE-FLuc activation from dose-response fit, relative to thapsigargin (% of thapsigargin); higher = stronger activation
Method: as §1

HEK293T-Rex XBP1-RLuc [4] = assay: maximal XBP1-RLuc activation from dose-response fit, relative to thapsigargin (% of thapsigargin); higher = stronger activation
Method: as §1

| SMILES | EC50 for ERSE-FLuc reporter activation (HEK293T-Rex ERSE-FLuc [1]) [µM] | EC50 for XBP1-RLuc reporter activation (HEK293T-Rex XBP1-RLuc [2]) [µM] | maximal ERSE-FLuc activation (HEK293T-Rex ERSE-FLuc [3]) | maximal XBP1-RLuc activation (HEK293T-Rex XBP1-RLuc [4]) |
| --- | --- | --- | --- | --- |
| Cc1ccc2nc(/C(C#N)=C/c3ccc(O)cc3)[nH]c2c1 | > 16.9 | > 16.9 | 35.3 ± 5.6 | 21.3 ± 3.4 |
| O=C1N/C(=C/c2ccc(O)cc2)C(=O)N1Cc1ccc(Br)cc1 | > 15.8 | 4.02 | 47.9 ± 1.7 | 70.6 ± 14 |
| CCCCNc1ncnc2c1cnn2-c1ccc(Cl)cc1 | > 19.5 | > 19.5 | 25.4 ± 3 | 2.05 ± 1.1 |
| O=c1[nH]c(/C=C2\C=Nc3ccccc32)c(O)n1-c1cccc(Cl)c1 | 2.5 | 2.18 | 67.9 ± 1 | 74.9 ± 7.7 |
| COc1cccc(-c2cc(C(=O)Nc3cc(C)ccc3O)no2)c1 | > 16.9 | > 16.9 | 46.2 ± 7.9 | 19.1 ± 3.5 |
| CN1C(=O)/C(=C\c2ccc(O)c(O)c2)SC1=S | > 16.9 | > 16.9 | 28 ± 15 | 40.5 ± 3.6 |
| CCC(=O)N(Cc1cc2cc(C)ccc2n2nnnc12)C1CCCC1 | > 16.9 | > 16.9 | 20.1 ± 5.6 | 1.64 ± 4.2 |
| COc1ccccc1/C=C/C(=O)Nc1ccc(Cl)cn1 | > 15.1 | > 15.1 | 27.3 ± 3.7 | 8.83 ± 0.86 |
| CCCCNC(=O)c1cc(-c2cccs2)on1 | 6.65 | > 16.9 | 107 ± 7.8 | 10.3 ± 2.2 |
| Cc1nn(-c2ccc(F)cc2)c2ncc(C(=O)NCc3ccco3)c(Cl)c12 | 15.3 | 12.6 | 63.1 ± 4.8 | 151 ± 6.8 |
| CC(=O)Oc1cc(N2CCOCC2)c(OC(C)=O)c2c1C(=O)c1ccccc1C2=O | > 16.9 | > 16.9 | 9.5 ± 2.7 | 3.44 ± 3.3 |
| Nc1ccc2nc(-c3ccc(Cl)cc3)[nH]c2c1 | > 5.63 | > 16.9 | 68.5 ± 6.7 | 35.3 ± 12 |
| O=C(CC(=O)Nc1ccc2nc3n(c(=O)c2c1)CCCCC3)NCc1ccco1 | 8.59 | > 16.9 | 77.9 ± 9.8 | 40.7 ± 7.4 |
| NC(=O)c1c(NC(=O)COc2ccccc2)sc2c1CCC2 | > 13.2 | > 13.2 | 16.2 ± 1.4 | 2.55 ± 0.7 |
| O=C(Nc1ccccc1O)c1cc2ccccc2o1 | > 21 | > 21 | 40.6 ± 8.2 | 20.1 ± 3.2 |
| Nc1ccc2nc(-c3ccc(Br)cc3)[nH]c2c1 | 12.5 | 17.3 | 74.6 ± 19 | 51.4 ± 4.2 |
| COc1cccc(/C=N/NC(=O)c2ccc(NC(=O)c3ccc(C)cc3)cc2)c1O | > 16.9 | > 16.9 | 6.5 ± 1.7 | 1.01 ± 1.2 |
| O=C1/C(=C/c2ccc(O)c(O)c2)Oc2cc(O)ccc21 | > 16.9 | > 16.9 | 46.2 ± 4.5 | 24.1 ± 2.3 |
| O=C(Nc1ccc(Cl)cn1)c1ccc(Cl)cc1Cl | > 15.2 | > 15.2 | 22.5 ± 8.3 | 4.15 ± 0.98 |
| Cc1cc(C)nc(Nc2nc(-c3ccc(O)c(O)c3)cs2)n1 | > 16.9 | 14.1 | 39.7 ± 7.3 | 59.1 ± 1.4 |
| COc1ccccc1-c1cnnc(N/N=C/c2c[nH]c3ccccc23)n1 | > 16.9 | > 16.9 | 49.9 ± 8.2 | 29.8 ± 2.1 |
